According to US12359169B2, “Universal CAR-T cell and preparation method and use thereof” (SHANGHAI LONGYAO BIOTECHNOLOGY INC., LTD., priority 2018, dated 2025):

Columns and labels:
CD3^−20uCAR-T cells = test: Regulation of U-CAR-T survival by ganciclovir in vivo (Raji xenograft); details: NSG mice with Raji, FIG. 4C
Experimental: NSG mice (n=6/group) were injected intravenously with 5×10^5 Raji, which was followed by the administration of 1×10^7 CD3^−20uCAR-T cells on day 7 or two hundred micrograms of Ganciclovir were administered on day 7, 10 and 13. 7 days after the treatment, bone marrow, spleen and peripheral blood were collected for analysis of CAR-T cell (mCD45^−hCD45^+hCD3^+) persistence and Raji (mCD45^−hCD45^+hCD19^+) tumor cell burden (FIG. 4C). Statistical significance was determined by Mann-Whitney U test and presented by *P<0.05, **P<0.01, ***P<0.001; NS: Not Significant. Statistical significance was determined by unpaired t test. Statistical significance was presented by *P<0.05, ***P<0.001.

U-CAR-T cells = test: Regulation of U-CAR-T survival by ganciclovir in vitro; format: cell-based, human; details: ganciclovir 0-3 μg/mL, 48 hours, anti-CD20 and anti-CD19 U-CAR-T, FIG. 4A
Experimental: The anti-CD20 U-CAR-T cells obtained in Example 1, anti-CD19 U-CAR-T cells (prepared according to the method in Example 1) and the control CAR-T (without knockout of CD3) were inoculated into 96-well plates, and the number of surviving CAR-Ts was compared after 48 hours by adding the indicated concentration of ganciclovir (0, 0.1 μg/mL, 0.3 μg/mL, 1 μg/mL, 3 μg/mL), and the results are shown in FIG. 4A.

CD3 gene = test: sgRNA knockdown efficiency assay (transient transfection, flow detection with anti-TCR antibody); format: cell-based, human; details: Jurkat cells, 0.6 μg pLenti-CrisprV2 plasmid, harvested at 48 h, FIG. 1F
Experimental: 2×10^5 Jurkat cells were transiently transfected with 0.6 μg pLenti-CrisprV2-hCD3E1/E2/D1/D2/Z1/Z2/G1/G2/G3 plasmids and cells were harvested at 48 h. Anti-TCR antibody was used for flow detection and untransfected plasmids were used as negative control.
The box in the figure represented the knockdown efficiency, where Z1 has the highest knockdown efficiency (about 81.2%).

## Nc1nc(O)c2ncn(COC(CO)CO)c2n1 [ganciclovir]
CD3^−20uCAR-T cells; 200 micrograms ganciclovir on day 7, 10 and 13, bone marrow, spleen, peripheral blood
  clearance of CD3− UCAR-T cells from organs: effectively cleared
CD3^−20uCAR-T cells; CD3− UCAR-T plus ganciclovir, compared to CD3+ CAR-T
  tumor load: elevated tumor load
U-CAR-T cells
  number of surviving CAR-Ts (survival of U-CAR-T): can regulate the survival of U-CAR-T

## Z1: sgRNA for knockout of CD3 zeta, SEQ ID NO: 8, GTGGAAGGCGCTTTTCACCG (listed as DNA, chemistry not given here)
CD3 gene
  knockdown efficiency: about 81.2%
